Measured values published in patent US9622479B2, “Boron complexes with gradual 1-methylcyclopropene releasing capability” (The United States of America, as represented by the …, priority 2014, dated 2017).

Experiments:
[1] = GC head space analysis of 1-MCP release from boron complexes mixed with water; type: physicochemical; settings: for release of 1-MCP with time (MCP releasing curve): complex mixed vigorously with H2O in air-tight vial, head space vapor injected in GC; for amount of 1-MCP released in first 24 hours (releasing curves): FIGS. 4 & 7; for consistency in releasing 1-MCP over time: FIGS. 4-7, compared with complex 2
Description: Investigation of releasing 1-MCP from the boron complexes of MCP (1, 2, 3,4): Without being bound by theory, due to the moisture sensitivity of the boron complexes, the nucleophilic attack of hydroxide ion (OH—) toward the boron atom triggered the breaking of the B-C bond releasing 1-MCP as a gas.
(§1) GC analysis of dicyclohexyl-(2-methylene-cyclopropyl)-borane (1): 140 mg of the complex was mixed vigorously with 0.6 mL of H2O in a 1.5 mL air-tight vial. The vapor collected (8 μl) from the head space of the solution was injected in a GC with an MXTR-1 column. The data were compared with a reference standard of 1-MCP.
as §1, with “dihexyl-(2-methylene-cyclopropyl)-borane (2): 291” for “dicyclohexyl-(2-methylene-cyclopropyl)-borane (1): 140”, “1.0” for “0.6”, “3” for “1.5”, “(100 μL)” for “(8 μl)”
as §1, with “tris-(2-methylene-cyclopropyl)-borane (3): 94” for “dicyclohexyl-(2-methylene-cyclopropyl)-borane (1): 140”, “0.4” for “0.6”, “μL)” for “μl)”
GC analysis of diphenyl-(2-methylene-cyclopropyl)-borane (4): 393 mg of the complex was mixed vigorously with 2.0 mL of H2O in a 3 mL air-tight vial. The vapor collected from the head space of the solution was injected in a Hewlett-Packard 5890 GC with capillary column (30 m×0.25 mm i.d.) coated with a 0.25 μm film of 5% phenyl methyl silicon and a flame ionization detector. The temperature of GC was programmed at 30° C. isothermal with an injection point temperature of 50° C. The detector was operated at 230° C. and sample was injected under split less condition. Helium was used as carrier gas with a 1.5 mL/min column flow.
However, during this analysis it was observed that some other compounds were also released. Those compounds formed due to the breakage of other B-C bonds were cyclohexane and cyclohexanol from complex 1 or hexane and hexanol from complex 2. Complex 3 also released some byproducts either by incomplete hydrolysis of the complex or Markovnikov addition of H2O.

[2] = 1-MCP concentration inside the jars by GC analysis after 24 hour treatment; type: physicochemical; settings: 1-gal airtight jars, equivalent amount of complex, 2 mL water
Description: (§2) Boron complex 1 was tested on green tomatoes. Six 3.9 L air tight glass jars were taken for investigation containing five green tomatoes each. The tomatoes in three jars were treated with 1-MCP released from the reaction between Boron complex 1 and water in a 14 mL vial with continuous stirring, which was placed inside the jars. The other jars were kept in identical condition without placing any boron complex inside. The treatment was carried out for 24 hours. The concentration level of 1-MCP was determined (9 to 13 μLL^-1) after 24 hours of reaction by GC analysis using 2-methyl-1-propene as a standard. After 24 hours treatment all the tomatoes were kept in open environment and monitored for their color changes.
(§3) For the comparative studies between DCMB (1) and DPMB (4), experiment was performed with three 1-gal airtight jars containing eight tomatoes each which were collected from the same source but different time. One jar was used as blank containing no complex and the other two jars Were treated with equivalent amount of DCMB (1) (393 mg) and DPMB (4) (376.5 mg) complex respectively arid water (2 mL), The concentration of released 1-MCP inside the jars was calculated by GC analysis after 24 hour treatment The treated and untreated tomatoes were subjected to quality analysis under identical conditions.

[3] = system: tomatoes; test: Comparative quality analysis of tomatoes treated with DCMB (1) and DPMB (4); type: in vivo; settings: for darkness (L*) of tomatoes during storage / redness (a*/b*) of tomatoes during storage: 7 days storage at 22±2° C.; for darkness (L*) of tomatoes during storage: FIG. 14; for redness (a*/b*) of tomatoes during storage: FIG. 15; for average firmness of tomatoes: day 7, storage at 22±2° C., FIG. 16
Description: as §3
Quality Analysis: Noninoculated tomatoes were treated with Boron complex 1 as described before and kept in open air for 9 days. Quality analysis (color and firmness) was performed at 22±2° C. Color was measured with a Hunter UltraScan® VIS colorimeter (Hunter Associates Lab, Reston, Va.) and firmness was evaluated with a TA-XT2i Texture Analyzer (Texture Technologies Corp., Scarsdale, N.Y.). Four measurements were taken for each tomato for color and firmness. The color of the tomatoes was measured seven times during the investigation period and firmness was determined at the end of 9th day.
Similar results were found in a*/b* value (FIG. 15). […] The firmness data of the treated tomatoes was compared to that of non-treated tomatoes at Day 7 (NT-7D, Exp 2) and also at Day 0 (NT-OD, Exp 2), which were collected from the same batch. […] However, a significant difference was observed between the non-treated tomatoes at day 7 (2.68 kg) and non-treated fruits at day 0.

[4] = system: green tomatoes; test: Green tomatoes treated with 1-MCP released from Boron complex 1 and water; color and firmness quality analysis; type: in vivo
Description: as §2, with “changes. Quality Analysis: Noninoculated tomatoes were treated with Boron complex 1 as described before and kept in open air for 9 days. Quality analysis (color and firmness) was performed at 22±2° C. Color was measured with a Hunter UltraScan® VIS colorimeter (Hunter Associates Lab, Reston, Va.) and firmness was evaluated with a TA-XT2i Texture Analyzer (Texture Technologies Corp., Scarsdale, N.Y.). Four measurements were taken for each tomato for color and firmness. The color of the tomatoes was measured seven times during the investigation period and firmness was determined at the end of 9th day.” for “changes.”

| release of 1-MCP with time (MCP releasing curve) [1] | concentration of 1-MCP [2] | area ratio of released 1-MCP over cyclohexane vs. temperature ([1]; GC experiment at different temperatures, FIG. 8) | SMILES | amount of 1-MCP released in first 24 hours (releasing curves) [1] | darkness (L*) of tomatoes during storage [3] | redness (a*/b*) of tomatoes during storage [3] | average firmness of tomatoes [3] | consistency in releasing 1-MCP over time [1] | tomato color at the end of nine days ([4]; 24 hours treatment, then open environment, all untreated turned red) | tomato color after 4 days ([4]; 24 hours treatment, then open environment, untreated turned yellow) | darkness (L*) of tomatoes during storage ([4]; 9 days storage at 22±2° C., FIG. 10) | redness (a*/b*) of tomatoes during storage ([4]; 9 days storage at 22±2° C., FIG. 11) | firmness of tomatoes ([4]; end of 9th day, storage at 22±2° C., FIG. 12) | foreign spots on the surface of the treated tomatoes ([4]; in vivo) |
| --- | --- | --- | --- | --- | --- | --- | --- | --- | --- | --- | --- | --- | --- | --- |
| released gradually with time |  |  | C=C1CC1B(CCCCCC)CCCCCC (centres unmarked) [complex 2, dihexyl-(2-methylene-cyclopropyl)-borane] |  |  |  |  |  |  |  |  |  |  |  |
| released gradually with time | 1 μLL-1 |  | C=C1CC1B(c1ccccc1)c1ccccc1 (centres unmarked) [complex 4, diphenyl-(2-methylene-cyclopropyl)-borane] | relatively low in first 24 hours | remained in the middle | slower increase than the non-treated tomatoes | 3.10 kg |  |  |  |  |  |  |  |
| released gradually with time | 5 μLL-1 | increased at lower temperature | C=C1CC1B(C1CCCCC1)C1CCCCC1 (centres unmarked) [complex 1, dicyclohexyl-(2-methylene-cyclopropyl)-borane] | near to its highest point in first 24 hours | did not significantly change | did not change significantly or increased very slowly | 4.20 kg | more consistent in releasing 1-MCP over time | half of the treated tomatoes were still green | remained green | did not significantly change | increased slowly but not in significant value | 1.42 (±0.35) kg | No foreign spots were observed |
| released gradually with time |  |  | C=C1CC1B(C1CC1=C)C1CC1=C (centres unmarked) [complex 3, tris-(2-methylene-cyclopropyl)-borane] |  |  |  |  | more consistent in releasing 1-MCP over time |  |  |  |  |  |  |
